Assay results reported in US20240425457A1, “COMPOSITIONS AND METHODS FOR SUPPRESSING AND/OR TREATING METABOLIC DISEASES AND/OR A CLINICAL CONDITION THEREOF” (CK Biotech Inc., priority 2018, published 2024).
Entries after “also recorded” stand apart in the source; their conditions may differ. Like-named read-outs stand apart in the source and are kept apart here.

Tests used:
[1] = molecular target: T1, CXXC5-DVL interaction (Homo sapiens, UniProt O14640); test: in vitro CXXC5-DVL PPI inhibition screening assay (FITC-tagged PTD-DBMP on DVL-PDZ, fluorescence); assay type: binding
T1 sequence (O14640 251-323 limits assumed): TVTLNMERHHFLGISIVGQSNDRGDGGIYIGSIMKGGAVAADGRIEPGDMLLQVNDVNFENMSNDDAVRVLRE
Description: Screening for compounds that inhibit the CXXC5-DVL interaction. […] CELL. DEATH. DIFFER. […] After the addition of 10 μM FITC-tagged PTD-DBMP to each well, each compound in the chemical library or control (DMSO) was treated to the well at a final concentration of 30 μM. The fluorescence intensity was measured using a Fluorstar Optima microplate reader (BGM Lab Technologie, Ortenberg, Germany) and normalized as follows: “(‘compounds-treated group’−‘blank’)/(‘DMSO-treated control’−‘blank’)*100”.

[2] = system: 3T3-L1 preadipocytes; test: adipocyte differentiation of 3T3-L1 preadipocytes, Oil Red O staining; assay type: cell-based
Description: Cell culture and adipocyte differentiation. 3T3-L1 cells were seeded in six-well plates at a density of 3×10^4 cells per well. The cells were grown in Dulbecco's modified Eagle medium (DMEM) with 10% bovine calf serum (Gibco) until confluent. After confluence, cells were induced to differentiate in DMEM containing 10% fetal bovine serum (FBS; Gibco) and MDI (520 μM methylisobutylxanthine (IBMX; Sigma-Aldrich), 1 μM dexamethasone (Sigma-Aldrich), and 167 nM insulin (Gibco)) with or without A3334. On day 4, the medium was replaced with DMEM containing 10% FBS and 167 nM insulin with or without A3334 and changed with fresh identical medium every 2 days up to day 14 post-induction. Cells were incubated at 37° C. in a 5% CO2 environment.
Oil Red O staining. […] For the quantification of lipid contents, the Oil Red O was eluted by the addition of 500 μl isopropanol containing 4% nonidet P-40 to each well and the absorbance was measured spectrophotometrically at 590 nm.
ORO staining. […] In the morning each well was washed thoroughly with water and images of the ORO staining were recorded with a Nikon bright-field optical microscope (Nikon TE-2000U, Tokyo, Japan) and quantified for further statistical analysis. For quantify lipid contents, the ORO was eluted by addition of 500 µl isopropanol containing 4% nonidet P-40 to each well and the absorbance was measured spectrophotometrically at 590 nm. […]

[3] = molecular target: T1, CXXC5-DVL interaction; test: Dvl-CXXC5 in vitro binding assay, (PTD-DBMP)-(PZD-DVL), concentration dependent
[4] = system: HFD-induced obese mice; test: HFD-induced obese mice, oral administration during 16 weeks of HFD; assay type: in vivo; conditions: HFD 16 weeks
Description: Anti-obesity effects of […], a small molecule […] inhibitor. Referring now to FIG. 34, C57BL/6N mice were fed HFD for 16 weeks with or without oral administration of 25 mpk […] or Orlistat. Orlistat is an anti-obesity drug that is thought to act by limiting the absorption of fats from the diet (e.g., a lipase inhibitor). […] Referring now to FIG. 35, The C57BL/6N mice were grown with HFD for 16 weeks with or without oral administration of 25 mpk of […], […], and I3O. […] The increase in adipocyte cell sizes and enhancement of inflammation (evaluated by crown like structures; blue; FIG. 35B) were suppressed by treatment with […] in the HFD mice.

[5] = FIG. 33A-33C, unit inferred, read-out: IC50, in vitro (PTD-DBMP)-(PZD-DVL) binding analyses

CO/N=C1/C(=C2/C(=O)Nc3cc(Cl)c(Cl)cc32)Nc2ccccc21 [Compound A3051, 5,6-dichloroindirubin-3′-methoxime]
inhibition of CXXC5-DVL interaction (in words) [1]: effectively inhibited interaction between CXXC5 and DVL
adipogenic differentiation of 3T3-L1 preadipocytes [2]: significant anti-differentiation effects
IC50 [3, 5]: 7.71 nM
adipocyte cell size and inflammation (crown like structures) ([4]; 25 mpk oral): showed reduction in adipocyte size and anti-inflammatory effects, but those effects were lower when compared to that of the A3334 treatment

COc1ccc2c(c1)/C(=C1/Nc3ccccc3/C1=N\O)C(=O)N2 [Compound A3334, 5-Methoxyindirubin-3′-oxime]
inhibition of CXXC5-DVL interaction (in words) [1]: effectively inhibited interaction between CXXC5 and DVL
adipogenic differentiation of 3T3-L1 preadipocytes [2]: efficiently inhibited the adipogenic differentiation of 3T3-L1 preadipocytes; also recorded: significant anti-differentiation effects
IC50 ([3]; FIG. 10B, read-out: CXXC5-Dvl PPI inhibition IC50): 63.1 nM
IC50 [3, 5]: 25.8 nM
HFD-induced body weight gain and abdominal obesity ([4]; 25 mpk oral): not observed in the HFD mice treated with A3334
adipocyte cell size and inflammation (crown like structures) ([4]; 25 mpk oral): suppressed by treatment with A3334
fatty liver and white adipocyte tissue ([4]; 25 mpk oral): suppression of fatty liver and white adipocyte tissue
glucose tolerance (GTT) and insulin tolerance (ITT) ([4]; 25 mpk oral): significantly improved by the A3334 treatment
triglyceride, total cholesterol, HDL-cholesterol ([4]; 25 mpk oral): significantly reduced the level of triglyceride and total cholesterol and increased the level of HDL-cholesterol
inhibitory effect on weight gain compared with orlistat ([4]; both 25 mpk): much more significant than the effects observed in the HFD mice treated with orlistat
